Data as given in paper PMC10005332, “It Takes Two to Tango, Part II: Synthesis of A-Ring Functionalised Quinones Containing Two Redox-Active Centres with Antitumour Activities” (Molecules, 2023).
Read-outs that look alike come from different tables or passages of the source.

Tests used:
[1] = tested on: HL60 (human pro-myelocytic leukaemia); test: MTT cytotoxicity assay, HL60; format: cell-based; details: for IC50: MTT, 72 h exposure, three independent experiments, read-out: Cytotoxic activity IC50 (95% CI) HL60
Outline: (§1)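 IC50 values derive from nonlinear regression of MTT read-outs at 595 nm. Mycoplasma-free cells in RPMI 1640 or DMEM with 10% fetal serum were exposed to test compounds for 72 h, then given MTT for 3 h. Selectivity index uses L929 versus tumour-line cytotoxicity.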

[2] = tested on: L929 cells (non-tumoral mouse fibroblast); test: MTT cytotoxicity assay, L929 control line; format: cell-based; details: 72 h exposure, read-out: Cytotoxic activity IC50 (95% CI) L929
Outline: as §1

[3] = MTT cytotoxicity assay, L929 control line; format: cell-based, mouse; details: mouse, L929 fibroblast cells (non-tumoral control line), 72 h exposure, read-out: Cytotoxic activity IC50 (95% CI) L929
Outline: as §1

[4] = tested on: HCT-116 (human colorectal carcinoma); test: MTT cytotoxicity assay, HCT-116; format: cell-based
Outline: as §1

B16 (murine melanoma) = test: MTT cytotoxicity assay, B16; format: cell-based; details: for IC50: Mus musculus, MTT, 72 h exposure, three independent experiments, read-out: Cytotoxic activity IC50 (95% CI) B16; for Selectivity index B16: ratio of cytotoxicity L929 / B16
Outline: as §1

[5] = tested on: PC3 (human prostate adenocarcinoma); test: MTT cytotoxicity assay, PC3; format: cell-based
Outline: as §1

[6] = tested on: KG1 (human acute myeloid leukaemia); test: MTT cytotoxicity assay, KG1; format: cell-based; details: for IC50: Homo sapiens, MTT, 72 h exposure, three independent experiments, read-out: Cytotoxic activity IC50 (95% CI) KG1; for Selectivity index KG1: ratio of cytotoxicity L929 / KG1
Outline: as §1

[7] = tested on: RAJI (human Burkitt’s lymphoma); test: MTT cytotoxicity assay, RAJI; format: cell-based; details: for IC50: Homo sapiens, Raji, 72 h, MTT, 72 h exposure, three independent experiments, read-out: Cytotoxic activity IC50 (95% CI) RAJI; for Selectivity index RAJI: ratio of cytotoxicity L929 / RAJI
Outline: as §1

[8] = tested on: SNB-19 (human astrocytoma); test: MTT cytotoxicity assay, SNB-19; format: cell-based
Outline: as §1

[9] = tested on: A549 (human lung carcinoma); test: MTT cytotoxicity assay, A549; format: cell-based; details: for IC50: Homo sapiens, A549, MTT, 72 h exposure, three independent experiments, read-out: Cytotoxic activity IC50 (95% CI) A549; for Selectivity index A549: ratio of cytotoxicity L929 / A549
Outline: as §1

[10] = tested on: K-562 (human chronic myeloid leukaemia); test: MTT cytotoxicity assay, K-562; format: cell-based; details: for IC50: Homo sapiens, K562, MTT, 72 h exposure, three independent experiments, read-out: Cytotoxic activity IC50 (95% CI) K-562; for Selectivity index K-562: ratio of cytotoxicity L929 / K-562
Outline: as §1

[11] = tested on: PC3 (human prostate adenocarcinoma); design: method as in PMID 34778772; details: ratio L929 / PC3; * data previously described; cited from earlier work
[12] = tested on: SNB-19 (human astrocytoma); design: method as in PMID 34778772; details: ratio L929 / SNB-19; * data previously described; cited from earlier work
[13] = tested on: HCT-116 (human colorectal carcinoma); design: method as in PMID 34778772; details: ratio L929 / HCT-116; * data previously described; cited from earlier work
[14] = tested on: HL60 (human pro-myelocytic leukaemia); design: method as in PMID 34778772; details: ratio L929 / HL60; * data previously described; cited from earlier work

| Structure (SMILES) | IC50 (B16 (murine melanoma)) [µM] | Selectivity index B16 (B16 (murine melanoma)) | IC50 [6] [µM] | Selectivity index KG1 [6] | IC50 [7] [µM] | Selectivity index RAJI [7] | IC50 [9] [µM] | Selectivity index A549 [9] | IC50 [10] [µM] | Selectivity index K-562 [10] | further results |
| --- | --- | --- | --- | --- | --- | --- | --- | --- | --- | --- | --- |
| O=C1C(=O)c2ccccc2C2=C1CC(Cn1cc(CNC3=CC(=O)c4cc5ccccc5cc4C3=O)nn1)O2 (centres unmarked) [Compound 20e, 2-((4-(((1,4-dioxo-1,4-dihydroanthracen-2-yl)amino)methyl)-1H-1,2,3-triazol-1-yl)methyl)-2,3-dihydronaphtho[1,2-b]furan-4,5-dione] | 9.57 | 1.7 | 37 | 0.4 | 5.26 | 3.0 | 12.7 | 1.3 | 7.58 | 2.1 | IC50 ([1]; Homo sapiens, HL-60, 72 h): 1.6 µM; IC50 [1]: 1.57 µM; Selectivity index HL60 ([1]; ratio of cytotoxicity L929 / HL60): 10.1; IC50 [2]: 15.9 µM; IC50 at 72 h [3]: 15.9 µM; IC50 ([4]; Homo sapiens, HCT-116, 72 h, MTT, 72 h exposure, three independent experiments, read-out: Cytotoxic activity IC50 (95% CI) HCT-116): 7.2 µM; Selectivity index HCT-116 ([4]; ratio of cytotoxicity L929 / HCT-116): 2.2; IC50 ([5]; Homo sapiens, MTT, 72 h exposure, three independent experiments, read-out: Cytotoxic activity IC50 (95% CI) PC3): 17.6 µM; Selectivity index PC3 ([5]; ratio of cytotoxicity L929 / PC3): 0.9; IC50 ([8]; Homo sapiens, SNB-19, MTT, 72 h exposure, three independent experiments, read-out: Cytotoxic activity IC50 (95% CI) SNB-19): 7.87 µM; Selectivity index SNB-19 ([8]; ratio of cytotoxicity L929 / SNB-19): 2.0 |
| COc1cccc2c1C(=O)c1c(O)c3c(c(O)c1C2=O)C[C@@](O)(C(=O)CO)C[C@@H]3O[C@H]1C[C@H](N)[C@H](O)[C@H](C)O1 [DOXO, doxorubicin, reference compound] | 0.06 | 30.2 | 0.38 | 4.5 | 2.33 | 0.7 | 0.57 | 3.0 | 0.91 | 1.9 | Selectivity index PC3 [11]: 2.3 *; Selectivity index SNB-19 [12]: 1.4 *; Selectivity index HCT-116 [13]: 8.2 *; Selectivity index HL60 [14]: 86.0 * |
